Patent US10301295B2, “Herbicidal compounds” (Syngenta Participations AG, priority 2014, dated 2019)
Read-outs that look alike come from different tables or passages of the source.

Tests used:
Assay in all cases: Glasshouse assay for herbicidal activity, pre-/post-emergence (percentage phytotoxicity)
Assay type in all cases: in vivo
[1] = test system: Echinochloa crus-galli (ECHCG); settings: Echinochloa crus-galli, Rate 250 g/ha, 100%=total damage, 0%=no damage
Procedure: (§1) Seeds of a variety of monocotyledonous and dicotyledonous test plants are sown in standard soil in pots. The plants are cultivated for one day (for pre-emergence) or for about 12 days (for post-emergence) under controlled conditions in a glasshouse (warm climate species at 24/18° C., cool climate species at 20/16° C., both at day/night; 16 hours light; 65% humidity). The test plants are then grown on, in a glasshouse (greenhouse) under controlled conditions (warm climate species at 24/18° C., cool climate species at 20/16° C., both at day/night; 16 hours light; 65% humidity) and are watered twice daily. 15 days after application of the test herbicide (15DAA) (for post-emergence), and 20 days after application of the test herbicide (20DAA) (for pre-emergence), the test plants are evaluated visually, and an assessed percentage phytotoxicity score is given for each herbicidal application on each plant species (with 100%=total damage to plant; 0%=no damage to plant). The plant species tested are as follows: Alopecurus myosuroides (ALOMY), Avena fatua (AVEFA), Lolium perenne (LOLPE), Echinochloa crus-galli (ECHCG).

Lolium perenne (LOLPE) = settings: Lolium perenne, Rate 250 g/ha, 100%=total damage, 0%=no damage
Procedure: as §1

Avena fatua (AVEFA) = settings: Avena fatua, Rate 250 g/ha, 100%=total damage, 0%=no damage
Procedure: as §1

[2] = test system: Alopecurus myosuroides (ALOMY); settings: Alopecurus myosuroides, Rate 250 g/ha, 100%=total damage, 0%=no damage
Procedure: as §1

[3] = post-emergence, 360 h, post-emergence, visual assessment 15 DAA, read-out: Post-emergence herbicidal activity (percentage phytotoxicity), ECHCG POST
[4] = pre-emergence, 480 h, pre-emergence, visual assessment 20 DAA, read-out: Pre-emergence herbicidal activity (percentage phytotoxicity), ECHCG PRE
[5] = post-emergence, 360 h, post-emergence, visual assessment 15 DAA, read-out: Post-emergence herbicidal activity (percentage phytotoxicity), LOLPE POST
[6] = pre-emergence, 480 h, pre-emergence, visual assessment 20 DAA, read-out: Pre-emergence herbicidal activity (percentage phytotoxicity), LOLPE PRE
[7] = post-emergence, 360 h, post-emergence, visual assessment 15 DAA, read-out: Post-emergence herbicidal activity (percentage phytotoxicity), AVEFA POST
[8] = pre-emergence, 480 h, pre-emergence, visual assessment 20 DAA, read-out: Pre-emergence herbicidal activity (percentage phytotoxicity), AVEFA PRE
[9] = 360 h, post-emergence, visual assessment 15 DAA, read-out: Post-emergence herbicidal activity (percentage phytotoxicity), ALOMY POST
[10] = 480 h, pre-emergence, visual assessment 20 DAA, read-out: Pre-emergence herbicidal activity (percentage phytotoxicity), ALOMY PRE

Structure (SMILES) | pest or weed control at 250 g/ha [1, 3] [%] | pest or weed control at 250 g/ha [1, 4] [%] | pest or weed control at 250 g/ha (Lolium perenne (LOLPE); [5]) [%] | pest or weed control at 250 g/ha (Lolium perenne (LOLPE); [6]) [%] | pest or weed control at 250 g/ha (Avena fatua (AVEFA); [7]) [%] | pest or weed control at 250 g/ha (Avena fatua (AVEFA); [8]) [%] | pest or weed control at 250 g/ha [2, 9] [%] | pest or weed control at 250 g/ha [2, 10] [%]
Cc1cc(-c2ccc(F)cc2)cc(C)c1C1C(=O)CC(CCNC(=O)C2=NOC(C)(C)C2)C1=O (stereo not shown) [Compound A109] | 100 | 90 | 100 | 90 | 100 | 90 | 100 | 90
Cc1cc(-c2ncc(F)cn2)cc(C)c1C1C(=O)CC(CCNC(=O)C2=NOC(C)(C)C2)C1=O (stereo not shown) [Compound A110] | 100 | 90 | 90 | 90 | 100 | 90 | 100 | 100
Cc1cc(-c2ncc(F)cc2F)cc(C)c1C1C(=O)CC(CCNC(=O)C2=NOC(C)(C)C2)C1=O (stereo not shown) [Compound A111] | 100 | 90 | 40 | 90 | 100 | 100 | 100 | 100
CC#Cc1cc(C)c(C2C(=O)CC(CCNc3ccc(C#N)cn3)C2=O)c(C)c1 (stereo not shown) [Compound A112] | 100 | 100 | 100 | 90 | 100 | 90 | 100 | 100
CC#Cc1cc(C)c(C2C(=O)CC(CCNc3ccc(C(F)(F)F)cn3)C2=O)c(C)c1 (stereo not shown) [Compound A113] | 100 | 90 | 100 | 90 | 100 | 70 | 100 | 90
Cc1cc(-c2ncc(C#N)cn2)cc(C)c1C1C(=O)CC(CCNC(=O)C2=NOC(C)(C)C2)C1=O (stereo not shown) [Compound A114] | 100 | 70 | 100 | 70 | 100 | 80 | 90 | 90
Cc1cc(OCC(F)(F)F)cc(C)c1C1C(=O)CC(CCNC(=O)C2=NOC(C)(C)C2)C1=O (stereo not shown) [Compound A115] | 100 | 70 | 90 | 90 | 100 | 80 | 100 | 100
Cc1cc(-c2ncc(Br)cn2)cc(C)c1C1C(=O)CC(CCNC(=O)C2=NOC(C)(C)C2)C1=O (stereo not shown) [Compound A116] | 100 | 90 | 100 | 90 | 100 | 90 | 100 | 90
